Laboratory results as given in US20190367516A1 (Bayer Pharma Aktiengesellschaft, priority 2015, published 2019).
Read-outs that look alike come from different tables or passages of the source.

Tests used:
human M2 receptor [1] = molecular target: T1, human M2 receptor (Homo sapiens, UniProt P08172)
T1 sequence (P08172 1-466): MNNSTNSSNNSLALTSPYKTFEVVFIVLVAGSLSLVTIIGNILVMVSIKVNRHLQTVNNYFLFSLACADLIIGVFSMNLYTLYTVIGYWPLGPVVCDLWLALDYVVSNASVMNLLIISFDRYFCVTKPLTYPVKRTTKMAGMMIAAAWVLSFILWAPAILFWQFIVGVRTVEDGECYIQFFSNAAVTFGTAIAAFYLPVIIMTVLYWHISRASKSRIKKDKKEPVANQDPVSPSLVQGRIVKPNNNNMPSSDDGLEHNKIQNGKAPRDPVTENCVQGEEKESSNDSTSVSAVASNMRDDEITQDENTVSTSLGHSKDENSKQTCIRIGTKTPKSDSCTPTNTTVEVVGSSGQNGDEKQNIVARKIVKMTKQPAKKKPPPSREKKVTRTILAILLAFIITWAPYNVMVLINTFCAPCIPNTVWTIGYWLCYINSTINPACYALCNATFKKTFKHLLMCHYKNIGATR

anaesthetized rats = experiment: Effects on the heart rate in anaesthetized rats (B-9); type: in vivo, rat; conditions: i.v. infusion via jugular vein over 5 min, dose not given, in some cases means of several determinations
Method: B-9. Effects of the Test Substances on the Heart Rate in Anaesthetized Rats
Male rats of the strain (WI) WU Br from the breeder Charles River are anaesthetized initially with a 4-5% isoflurane inhalation for approx. 3 min. Subsequently, anaesthesia is maintained using a 1.5% isoflurane inhalation. For this purpose, the anaesthetized animals are fixed on a heated operating plate. By means of visual inspection and between toe reflex, the depth of anaesthesia is checked.
For the application of the test substance, an i.v. route into the jugular vein is used. A caudal to cranial skin incision is then made longitudinally and both the cervical musculature and the salivary glands are severed. The right common carotid artery is exposed and blood supply is arrested both proximally and distally. Using microinstrumentation, a TIP catheter (1.2 F) is introduced into the vessel in order to measure the arterial pressure and the heart rate.
Initially, both parameters are monitored for 10 min in the basal state without substance addition. The substances to be investigated are dissolved in suitable solvent mixtures and subsequently administered at various dosages to a group of animals in each case via the jugular vein by an infusion pump over 5 min. A solvent-treated group is used as control under the same experimental conditions. The arterial blood pressure and heart rate with substance addition is determined for 20 min. The data are registered with the PowerLab system (AD instruments) and evaluated using the LabChart program (AD instruments).
The values determined in this manner for the percentage decrease in heart rate for individual working examples are given in Table 4 below (in some cases as means of a plurality of independent individual determinations): […]

human M2 receptor [2] = molecular target: T1, human M2 receptor; type: cell-based; conditions: α >1 = positive cooperativity
[3] = molecular target: T2, Human Recombinant M2 Muscarinic Acetylcholine Receptor (Homo sapiens, UniProt P08172); experiment: Selectivity test, Ca2+ release (Eurofins GPCRProfiler): allosteric modulator assay, M2 (B-3.2); type: cell-based; conditions: for Selectivity (Shift EC50 M2/Shift EC50 M4): Table 2, quotient of allosteric shifts M2/M4; for Selectivity (Shift EC50 M2/Shift EC50 M1): Table 3, quotient of allosteric shifts M2/M1
T2 sequence (P08172 1-466): T1 sequence (P08172 1-466)
Method: B-3. Selectivity Test with Respect to Human Muscarinic Acetylcholine Receptors
Any potentially agonistic effect, or else positive allosteric effect, of the test substances on other human muscarinic acetylcholine receptors can be determined in a functional Ca^2+ release test (Eurofins; GPCRProfiler® Services in agonistic and allosteric mode for Mx Receptors; cat#: HTS600GPCR).
The substance test is conducted with a FLIPR^TETRA instrument (Molecular Devices).
After the agonism assay has ended, the assay plate is incubated at 25° C. for 7 min. After the incubation period, the positive allosteric modulator assay is initialized.
B-3.2. Allosteric Modulator Assay
In order to examine any positive or negative allosteric effect of the test substances on other human muscarinic acetylcholine receptors and the M2 receptor itself, every substance concentration is combined with an acetylcholine 8-point dose-response curve. Addition of agonist solution is again followed in turn by the measurement of cell fluorescence for a period of 180 sec. The shift in the acetylcholine dose-response curve (maximum shift in the EC50 of acetylcholine) is analysed and quantified by means of GraphPad PRISM (Sigmoidal dose-response (variable slope)−EC50). Finally, quotients of the allosteric shift for the M2 receptor and M4 receptor are formed, which function in turn as a measure of the respective selectivity.

[4] = Receptor activity EC50, M2-GIRK1/4 activation test, acetylcholine at EC20, allosteric potency, in some cases mean values from two or more determinations
[5] = shift in the acetylcholine dose-response curve (Allosteric EC50 shift, GraphPad PRISM)
[6] = test substance concentration 1 μM
[7] = test substance concentration 10 μM
[8] = Receptor activity EC50, allosteric potency at EC20 acetylcholine, M2-GIRK1/4 reporter cells, in some cases mean of two or more determinations
[9] = read-out: Efficiency, boosting of the acetylcholine effect at EC20 acetylcholine concentration, M2-GIRK1/4 reporter cells
[10] = shift of acetylcholine dose-response curve (Allosteric EC50 shift)

Row | Structure (SMILES) | EC50 (human M2 receptor [1]; [4]) [nM] | Cooperativity (alpha factor) (human M2 receptor [2]; [5]) | EC50 (human M2 receptor [1]; [8]) [nM] | Emax (human M2 receptor [1]; [9]) [%] | Cooperativity (alpha factor) (human M2 receptor [2]; [10]) | Emax (human M2 receptor [1]; read-out: Efficiency) [%] | Reduction in heart rate (%) (anaesthetized rats) | Selectivity (Shift EC50 M2/Shift EC50 M4) [3, 6] | Selectivity (Shift EC50 M2/Shift EC50 M4) [3, 7] | Selectivity (Shift EC50 M2/Shift EC50 M1) [3, 7]
1 | CC[C@@H](NC(=O)c1cn(-c2ccc(F)cc2F)c2nc(N3C[C@@H](O)CC3=O)ccc2c1=O)C(F)(F)F [Example 175] | 69 | 33 |  |  |  | 97.3 | 6 | 29 | 83 | 287
2 | O=C(N[C@@H](C1CC1)C(F)(F)F)c1cn(-c2c(F)cc(F)cc2F)c2nc(N3CCNC3=O)ccc2c1=O [Example 323, N-[(1 S)-1-Cyclopropyl-2,2,2-trifluoroethyl]-4-oxo-7-(2-oxoimidazolidin-1-yl)-1-(2,4,6-trifluorophenyl)-1,4-dihydro-1,8-naphthyridine-3-carboxamide] | 14 | 16 |  |  |  |  | 13 | 52 | 44 | 31
3 | CC[C@H](NC(=O)c1cn(-c2c(F)cc(F)cc2F)c2nc(N3C[C@@H](O)CC3=O)ccc2c1=O)C(F)(F)F [Example 332, 7-[(4S)-4-Hydroxy-2-oxopyrrolidin-1-yl]-4-oxo-N-[(2S)-1,1,1-trifluorobutan-2-yl]-1-(2,4,6-trifluorophenyl)-1,4-dihydro-1,8-naphthyridine-3-carboxamide] | 20 | 37 |  |  |  | 99.2 | 11 |  |  | 
4 | O=C(N[C@H](C1CC1)C(F)(F)F)c1cn(-c2c(F)cc(F)cc2F)c2nc(N3CCNC3=O)ccc2c1=O [Example 342, N-[(1R)-1-Cyclopropyl-2,2,2-trifluoroethyl]-4-oxo-7-(2-oxoimidazolidin-1-yl)-1-(2,4,6-trifluorophenyl)-1,4-dihydro-1,8-naphthyridine-3-carboxamide] | 11 | 13 |  |  |  |  | 10 |  |  | 
5 | CC(C)(C)[C@@H](NC(=O)c1cn(-c2c(F)cc(F)cc2F)c2nc(N3C[C@@H](O)[C@H](O)C3)ccc2c1=O)C(F)(F)F [Example 349, 7-[(3R,4R)-3,4-Dihydroxypyrrolidin-1-yl]-4-oxo-N-[(2R)-1,1,1-trifluoro-3,3-dimethylbutan-2-yl]-1-(2,4,6-trifluorophenyl)-1,4-dihydro-1,8-naphthyridine-3-carboxamide] | 4 | 52 |  |  |  | 100 | 14 |  |  | 
6 | CC(C)(CC(F)(F)F)NC(=O)c1cn(-c2c(F)cc(F)cc2F)c2nc(N3C[C@@H](O)[C@H](O)C3)ccc2c1=O [Example 370, 7-[(3R,4R)-3,4-Dihydroxypyrrolidin-1-yl]-4-oxo-N-(4,4,4-trifluoro-2-methylbutan-2-yl)-1-(2,4,6-trifluorophenyl)-1,4-dihydro-1,8-naphthyridine-3-carboxamide] | 14 | 32 |  |  |  |  | 12 |  |  | 
7 | CC[C@@H](NC(=O)c1cn(-c2c(F)cc(F)cc2Cl)c2nc(N3C[C@@H](O)CC3=O)ccc2c1=O)C(F)(F)F [Example 407, 1-(2-Chloro-4,6-difluorophenyl)-7-[(4S)-4-hydroxy-2-oxopyrrolidin-1-yl]-4-oxo-N-[(2R)-1,1,1-trifluorobutan-2-yl]-1,4-dihydro-1,8-naphthyridine-3-carboxamide] |  |  | 7 | 98.5 | 32 |  | 13 |  |  | 
8 | CC(C)(CC(F)(F)F)NC(=O)c1cn(-c2c(F)cc(F)cc2F)c2nc(N3C[C@@H](O)CC3=O)ccc2c1=O [Example 511, 7-[(4S)-4-Hydroxy-2-oxopyrrolidin-1-yl]-4-oxo-N-(4,4,4-trifluoro-2-methylbutan-2-yl)-1-(2,4,6-trifluorophenyl)-1,4-dihydro-1,8-naphthyridine-3-carboxamide] |  |  | 9 | 100 | 30 |  | 10 |  |  | 
9 | O=C(N[C@@H](C1CC1)C(F)(F)F)c1cn(-c2c(F)cc(F)cc2F)c2nc(N3C[C@@H](O)[C@H](O)C3)ccc2c1=O [Example 590, N-[(1S)-1-Cyclopropyl-2,2,2-trifluoroethyl]-7-[(3R,4R)-3,4-dihydroxypyrrolidin-1-yl]-4-oxo-1-(2,4,6-trifluorophenyl)-1,4-dihydro-1,8-naphthyridine-3-carboxamide] |  |  | 15 |  | 43 | 100 | 13 | 7 | 33 | 30

Second part, led by results:

Row | EC50 (human M2 receptor [1]; [4]) [nM] | Cooperativity (alpha factor) (human M2 receptor [2]; [5]) | EC50 (human M2 receptor [1]; [8]) [nM] | Emax (human M2 receptor [1]; [9]) [%] | Cooperativity (alpha factor) (human M2 receptor [2]; [10]) | Structure (SMILES) | Emax (human M2 receptor [1]; read-out: Efficiency) [%] | Reduction in heart rate (%) (anaesthetized rats) | Selectivity (Shift EC50 M2/Shift EC50 M4) [3, 6] | Selectivity (Shift EC50 M2/Shift EC50 M4) [3, 7] | Selectivity (Shift EC50 M2/Shift EC50 M1) [3, 7]
10 | 41 | 29 |  |  |  | C[C@H](NC(=O)c1cn(-c2c(F)cc(F)cc2F)c2nc(N3C[C@@H](O)CC3=O)ccc2c1=O)C(F)(F)F [Example 330, 7-[(4S)-4-Hydroxy-2-oxopyrrolidin-1-yl]-4-oxo-1-(2,4,6-trifluorophenyl)-N-[(2S)-1,1,1-trifluoropropan-2-yl]-1,4-dihydro-1,8-naphthyridine-3-carboxamide] |  | 9 |  |  | 
11 | 9 | 39 |  |  |  | O=C(N[C@H](C1CC1)C(F)(F)F)c1cn(-c2c(F)cc(F)cc2F)c2nc(N3C[C@@H](O)CC3=O)ccc2c1=O [Example 386, N-[(1R)-1-Cyclopropyl-2,2,2-trifluoroethyl]-7-[(4S)-4-hydroxy-2-oxopyrrolidin-1-yl]-4-oxo-1-(2,4,6-trifluorophenyl)-1,4-dihydro-1,8-naphthyridine-3-carboxamide] |  | 13 |  |  | 
12 |  |  | 7 | 98.3 | 35 | O=C(N[C@@H](C1CC1)C(F)(F)F)c1cn(-c2c(F)cc(F)cc2F)c2nc(N3C[C@@H](O)CC3=O)ccc2c1=O [Example 404, N-[(1 S)-1-Cyclopropyl-2,2,2-trifluoroethyl]-7-[(4S)-4-hydroxy-2-oxopyrrolidin-1-yl]-4-oxo-1-(2,4,6-trifluorophenyl)-1,4-dihydro-1,8-naphthyridine-3-carboxamide] |  | 9 |  |  | 
13 |  |  | 9 | 100 | 40 | O=C(N[C@H](C1CC1)C(F)(F)F)c1cn(-c2c(F)cc(F)cc2Cl)c2nc(N3C[C@@H](O)CC3=O)ccc2c1=O [Example 414, 1-(2-Chloro-4,6-difluorophenyl)-N-[(1R)-1-cyclopropyl-2,2,2-trifluoroethyl]-7-[(4S)-4-hydroxy-2-oxopyrrolidin-1-yl]-4-oxo-1,4-dihydro-1,8-naphthyridine-3-carboxamide] |  | 16 |  |  | 
